Values joined by “and” are separate entries in the source; they are usually repeats but may differ in a detail not shown here. Equal entries are not always repeated. Inconclusive results and toxic doses are left out. Rule for the calls: active = survival T/C of 150% or more; inactive = T/C below 125% in these data.
Tested on: BDF1 mice, P388 leukemia ip, median survival T/C
Assay: NCI In Vivo Anticancer Drug Screen. Data for tumor model P388 Leukemia (intraperitoneal) in B6D2F1 (BDF1) mice
Conditions: endpoint: median survival time, higher = longer survival
Summary of the method: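 In tumour-bearing mice, survival after compound treatment is set against the vehicle group and given as a quotient.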

[1] = dose: 100.0 mg/kg/injection, schedule: Q04DX003 (ip), vehicle: saline with Tween-80
[2] = dose: 400.0 mg/kg/injection, schedule: Q04DX003 (ip), vehicle: saline with Tween-80
[3] = dose: 100.0 mg/kg/injection, schedule: Q01DX009 (ip), vehicle: saline
[4] = dose: 400.0 mg/kg/injection, schedule: Q01DX009 (ip), vehicle: saline

Measured: T/C

COc1cc2c(cc1NC(=O)N(CCCl)N=O)-c1ccccc1C2
active: dose: 19.0 mg/kg/injection, schedule: Q04DX003 (ip), vehicle: Klucel (hydroxypropylcellulose) (HPC) 154 % of control | dose: 29.0 mg/kg/injection, schedule: Q04DX003 (ip), vehicle: Klucel (hydroxypropylcellulose) (HPC) 154 % of control | dose: 45.0 mg/kg/injection, schedule: Q04DX003 (ip), vehicle: Klucel (hydroxypropylcellulose) (HPC) 172 % of control | dose: 65.0 mg/kg/injection, schedule: Q04DX003 (ip), vehicle: Klucel (hydroxypropylcellulose) (HPC) 190 % of control | dose: 100.0 mg/kg/injection, schedule: Q04DX003 (ip), vehicle: Klucel (hydroxypropylcellulose) (HPC) 168 % of control | dose: 200.0 mg/kg/injection, schedule: Q04DX003 (ip), vehicle: Klucel (hydroxypropylcellulose) (HPC) 172 % of control | dose: 400.0 mg/kg/injection, schedule: Q04DX003 (ip), vehicle: Klucel (hydroxypropylcellulose) (HPC) 209 % of control
inactive: dose: 8.3 mg/kg/injection, schedule: Q04DX003 (ip), vehicle: Klucel (hydroxypropylcellulose) (HPC) 108 % of control | dose: 12.0 mg/kg/injection, schedule: Q04DX003 (ip), vehicle: Klucel (hydroxypropylcellulose) (HPC) 113 % of control

CCOC(=O)CCCc1ccc(N=NN(C)C)cc1
inactive: dose: 150.0 mg/kg/injection, schedule: Q04DX003 (ip), vehicle: saline 95 % of control

CCCCCCCCCCCCCCCCOc1ccc(C(C)(C)C)cc1
inactive: dose: 37.5 mg/kg/injection, schedule: Q01DX001 (ip), vehicle: saline sonified 100 % of control | dose: 75.0 mg/kg/injection, schedule: Q01DX001 (ip), vehicle: saline sonified 100 % of control | dose: 150.0 mg/kg/injection, schedule: Q01DX001 (ip), vehicle: saline sonified 100 % of control

O=C(COc1ccc([N+](=O)[O-])cc1)Nc1cccnc1
inactive: [1] 100 % of control | [2] 100 % of control

c1ccc(NNc2c3ccccc3nc3ccccc23)cc1
inactive: dose: 50.0 mg/kg/injection, schedule: Q01DX009 (ip), vehicle: saline with Tween-80 102 % of control | dose: 100.0 mg/kg/injection, schedule: Q01DX009 (ip), vehicle: saline with Tween-80 102 % of control

O=S(=O)(OCCF)c1cc(Cl)c(Cl)cc1Cl
inactive: dose: 50.0 mg/kg/injection, schedule: Q01DX005 (ip), vehicle: Klucel (hydroxypropylcellulose) (HPC) 113 % of control

OCC12CCCCC1CC1(CC2)OCCO1 (configuration not stated)
inactive: [3] 92 % of control | [1] 95 % of control | dose: 200.0 mg/kg/injection, schedule: Q04DX003 (ip), vehicle: saline with Tween-80 90 % of control | [4] 96 % of control | [2] 90 % of control

C=C1C(=O)C2(C)OC2(C)C1C(=O)O (configuration not stated)
inactive: dose: 1.25 mg/kg/injection, schedule: Q01DX009 (ip), vehicle: Klucel (hydroxypropylcellulose) (HPC) 98 % of control | dose: 2.5 mg/kg/injection, schedule: Q01DX009 (ip), vehicle: Klucel (hydroxypropylcellulose) (HPC) 114 % of control | dose: 5.0 mg/kg/injection, schedule: Q01DX009 (ip), vehicle: Klucel (hydroxypropylcellulose) (HPC) 120 % of control | dose: 10.0 mg/kg/injection, schedule: Q01DX009 (ip), vehicle: Klucel (hydroxypropylcellulose) (HPC) 109 % of control

Cc1cc(C)c([I+]c2c(C)cc(C)cc2C)c(C)c1
inactive: dose: 0.28 mg/kg/injection, schedule: Q01DX009 (ip), vehicle: saline 118 % of control | dose: 0.45 mg/kg/injection, schedule: Q04DX003 (ip), vehicle: saline 109 % of control | dose: 0.56 mg/kg/injection, schedule: Q01DX009 (ip), vehicle: saline 118 % of control | dose: 0.65 mg/kg/injection, schedule: Q04DX003 (ip), vehicle: saline 109 % of control | dose: 1.1 mg/kg/injection, schedule: Q04DX003 (ip), vehicle: saline 120 % of control | dose: 1.13 mg/kg/injection, schedule: Q01DX009 (ip), vehicle: saline 109 % of control | dose: 1.65 mg/kg/injection, schedule: Q04DX003 (ip), vehicle: saline 120 % of control | dose: 3.0 mg/kg/injection, schedule: Q01DX009 (ip), vehicle: Klucel (hydroxypropylcellulose) (HPC) 103 % of control | dose: 3.0 mg/kg/injection, schedule: Q04DX003 (ip), vehicle: Klucel (hydroxypropylcellulose) (HPC) 112 % of control | dose: 6.0 mg/kg/injection, schedule: Q01DX009 (ip), vehicle: Klucel (hydroxypropylcellulose) (HPC) 111 % of control | dose: 6.0 mg/kg/injection, schedule: Q04DX003 (ip), vehicle: Klucel (hydroxypropylcellulose) (HPC) 100 % of control | dose: 8.0 mg/kg/injection, schedule: Q04DX003 (ip), vehicle: Klucel (hydroxypropylcellulose) (HPC) 95 % of control | dose: 8.0 mg/kg/injection, schedule: Q04DX003 (ip), vehicle: saline with Tween-80 120 % of control | dose: 12.5 mg/kg/injection, schedule: Q04DX003 (ip), vehicle: Klucel (hydroxypropylcellulose) (HPC) 115 % of control

Cc1ccc2c(c1)Sc1ccc3ccccc3c1N2
inactive: dose: 100.0 mg/kg/injection, schedule: Q04DX003 (ip), vehicle: saline sonified 113 % of control | dose: 200.0 mg/kg/injection, schedule: Q04DX003 (ip), vehicle: saline sonified 90 % of control | dose: 400.0 mg/kg/injection, schedule: Q04DX003 (ip), vehicle: saline sonified 100 % of control

CCCCCCCCCCCCCCCCN(C)c1ccc(C=O)cc1
inactive: [3] 104 % of control and 110 % of control | dose: 100.0 mg/kg/injection, schedule: Q04DX003 (ip), vehicle: saline 118 % of control | dose: 200.0 mg/kg/injection, schedule: Q01DX009 (ip), vehicle: saline 100 % of control and 105 % of control | dose: 200.0 mg/kg/injection, schedule: Q04DX003 (ip), vehicle: saline 109 % of control | [4] 113 % of control | dose: 400.0 mg/kg/injection, schedule: Q04DX003 (ip), vehicle: saline 109 % of control

Oc1c(-c2ccccc2)cc(-[n+]2c(-c3ccccc3)cc(-c3ccc(-c4ccccc4)cc3)cc2-c2ccccc2)cc1-c1ccccc1
inactive: dose: 25.0 mg/kg/injection, schedule: Q01DX001 (ip), vehicle: saline with Tween-80 107 % of control | dose: 50.0 mg/kg/injection, schedule: Q01DX001 (ip), vehicle: saline with Tween-80 98 % of control | dose: 100.0 mg/kg/injection, schedule: Q01DX001 (ip), vehicle: saline with Tween-80 102 % of control

CC1(CCNC2CCCCC2)Oc2ccccc2O1
inactive: dose: 50.0 mg/kg/injection, schedule: Q04DX002 (ip), vehicle: Klucel (hydroxypropylcellulose) (HPC) 99 % of control | dose: 100.0 mg/kg/injection, schedule: Q04DX002 (ip), vehicle: Klucel (hydroxypropylcellulose) (HPC) 101 % of control

CN(C)c1ccc(/C=C\c2ccnc3ccccc23)cc1
inactive: dose: 1.5 mg/kg/injection, schedule: Q01DX010 (ip), vehicle: saline 100 % of control | dose: 3.0 mg/kg/injection, schedule: Q01DX010 (ip), vehicle: saline 95 % of control | dose: 6.0 mg/kg/injection, schedule: Q01DX010 (ip), vehicle: saline 100 % of control | dose: 12.0 mg/kg/injection, schedule: Q01DX010 (ip), vehicle: saline 109 % of control

C=CS(=O)(=O)Cc1ccccc1
inactive: dose: 25.0 mg/kg/injection, schedule: Q04DX003 (ip), vehicle: saline with Tween-80 104 % of control | dose: 50.0 mg/kg/injection, schedule: Q04DX003 (ip), vehicle: saline with Tween-80 93 % of control

ClCCN(CCCl)CCNc1ccnc2cc(Cl)ccc12
active: dose: 1.0 mg/kg/injection, schedule: Q04DX003 (ip), vehicle: saline 172 % of control | dose: 1.32 mg/kg/injection, schedule: Q01DX009 (ip), vehicle: saline 154 % of control | dose: 2.0 mg/kg/injection, schedule: Q01DX009 (ip), vehicle: saline 154 % of control | dose: 3.0 mg/kg/injection, schedule: Q01DX009 (ip), vehicle: saline 181 % of control | dose: 4.0 mg/kg/injection, schedule: Q04DX003 (ip), vehicle: saline 154 % of control | dose: 6.0 mg/kg/injection, schedule: Q04DX003 (ip), vehicle: saline 159 % of control | dose: 12.5 mg/kg/injection, schedule: Q04DX003 (ip), vehicle: saline 163 % of control
inactive: dose: 0.13 mg/kg/injection, schedule: Q01DX009 (ip), vehicle: saline 105 % of control | dose: 0.5 mg/kg/injection, schedule: Q01DX009 (ip), vehicle: saline 100 % of control | dose: 2.0 mg/kg/injection, schedule: Q04DX003 (ip), vehicle: saline 109 % of control | dose: 25.0 mg/kg/injection, schedule: Q04DX003 (ip), vehicle: saline 86 % of control
